The experiment concerns the target T1, oestrogen receptor (ER) (Homo sapiens, UniProt P03372).
T1 construct: These MVLN cells express, along with the functional oestrogen receptor (ER), a reporter construct; endogenous in cells; host or cells: MVLN cells (MCF7 derivative carrying a luciferase reporter construct)
T1 sequence (P03372 1-595): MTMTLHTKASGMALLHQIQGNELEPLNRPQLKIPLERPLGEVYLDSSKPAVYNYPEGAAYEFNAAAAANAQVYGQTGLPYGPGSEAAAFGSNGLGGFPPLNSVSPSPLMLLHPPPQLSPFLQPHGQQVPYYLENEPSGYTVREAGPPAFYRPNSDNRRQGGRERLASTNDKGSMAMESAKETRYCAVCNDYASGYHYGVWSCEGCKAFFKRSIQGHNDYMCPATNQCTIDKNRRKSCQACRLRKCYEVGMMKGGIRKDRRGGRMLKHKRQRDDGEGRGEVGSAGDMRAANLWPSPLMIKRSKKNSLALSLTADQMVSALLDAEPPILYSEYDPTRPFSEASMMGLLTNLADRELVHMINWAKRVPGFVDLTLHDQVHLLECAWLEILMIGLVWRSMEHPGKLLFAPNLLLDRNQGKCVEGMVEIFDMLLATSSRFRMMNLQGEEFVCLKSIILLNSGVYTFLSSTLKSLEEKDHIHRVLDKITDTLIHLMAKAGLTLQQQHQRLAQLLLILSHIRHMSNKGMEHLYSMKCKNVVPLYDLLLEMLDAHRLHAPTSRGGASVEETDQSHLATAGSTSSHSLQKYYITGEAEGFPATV
The experiment in a line: Anti-oestrogenic action in MVLN cells (inhibition of estradiol-induced luciferase). The format is cell-based. Particulars: inhibition of estradiol-induced luciferase signal, value of Ex. 44 is a mean value, read-out: Antioestrogenic action in vitro: MVLN transactivation antagonism IC50. The source says: The anti-oestrogenic action of the claimed pharmacological compounds was investigated in so-called MVLN cells in vitro. MVLN cells are derivatives of the hormone-responsive MCF7 breast cancer cells known by a person skilled in the art. These MVLN cells express, along with the functional oestrogen receptor (ER), a reporter construct, which under ER-activation expresses luciferase. Determination of the activity of the induced luciferase permits a direct conclusion on the oestrogen properties of substances. To investigate the anti-oestrogenic properties of the pharmacological compounds, they were investigated in the presence of oestrogen for their potential for inhibiting the luciferase signal induced by estradiol. The claimed pharmacological test substances were investigated in MVLN cells for their anti-oestrogenic potential, as described (see Table 2).

Data on 23 molecules can be found in patent US20130252890A1, “6,7-DIHYDRO-5H-BENZO[7]ANNULENE DERIVATIVES, PROCESS FOR PREPARATION THEREOF, PHARMACEUTICAL PREPARATIONS COMPRISING THEM, AND THE USE THEREOF FOR PRODUCTION OF MEDICAMENTS” (BAYER INTELLECTUAL PROPERTY GMBH, priority 2010, published 2013).

pIC50: −log10 of the molar value.

Turning to `CN(CCCCCCC1=C(c2ccc(F)cc2)CCCc2c1ccc(O)c2F)CCCCS(=O)(=O)CCC(F)(F)F` [Example 50, 4-Fluoro-8-(4-fluorophenyl)-9-[6-(methyl{4-[(3,3,3-trifluoropropyl)sulphonyl]butyl}amino)hexyl]-6,7-dihydro-5H-benzo[7]annulen-3-ol], the pIC50 was 7.80.

Regarding `CN(CCCCCC1=C(c2ccc(F)cc2)CCCc2cc(O)ccc21)CCCCS(=O)(=O)CCC(F)(F)F` [Example 52, 8-(4-Fluorophenyl)-9-[5-(methyl{4-[(3,3,3-trifluoropropyl)sulphonyl]butyl}amino)pentyl]-6,7-dihydro-5H-benzo[7]annulen-3-ol], the negative-log IC50 (pIC50) was 6.28. For the molecule `CN(CCCCCCC1=C(c2ccc(F)cc2)CCCc2cc(O)ccc21)CCCS(=O)(=O)CCC(F)(F)F` [Example 53, 8-(4-Fluorophenyl)-9-[6-(methyl{3-[(3,3,3-trifluoropropyl)sulphonyl]propyl}amino)hexyl]-6,7-dihydro-5H-benzo[7]annulen-3-ol], the pIC50 is 7.07. To `O=S(=O)(CCCN(CCO)CCCCCCC1=C(c2ccc(F)cc2)CCCc2cc(O)ccc21)CCCC(F)(F)C(F)(F)F` [Example 54, 8-(4-Fluorophenyl)-9-{6-[(2-hydroxyethyl){3-[(4,4,5,5,5-pentafluoropentyl)sulphonyl]propyl}amino]hexyl}-6,7-dihydro-5H-benzo[7]annulen-3-ol] belongs 7.57; to `O=S(=O)(CCCN(CCCO)CCCCCCC1=C(c2ccc(F)cc2)CCCc2cc(O)ccc21)CCCC(F)(F)C(F)(F)F` [Example 55, 8-(4-Fluorophenyl)-9-{6-[(3-hydroxypropyl){3-[(4,4,5,5,5-pentafluoropentyl)sulphonyl]propyl}amino]hexyl}-6,7-dihydro-5H-benzo[7]annulen-3-ol], 7.66; to `O=S(=O)(CCCN(CCO)CCCCCCC1=C(c2ccc(F)cc2)CCCc2cc(O)ccc21)CCC(F)(F)F` [Example 56, 8-(4-Fluorophenyl)-9-{6-[(2-hydroxyethyl){3-[(3,3,3-trifluoropropyl)sulphonyl]propyl}amino]hexyl}-6,7-dihydro-5H-benzo[7]annulen-3-ol], 7.54. For the molecule `O=S(=O)(CCCN(CCCO)CCCCCCC1=C(c2ccc(F)cc2)CCCc2cc(O)ccc21)CCC(F)(F)F` [Example 57, 8-(4-Fluorophenyl)-9-{6-[(3-hydroxypropyl){3-[(3,3,3-trifluoropropyl)sulphonyl]propyl}amino]hexyl}-6,7-dihydro-5H-benzo[7]annulen-3-ol], the pIC50 was 6.95.

Consider `O=S(=O)(CCCN(CCCCCCC1=C(c2ccc(F)cc2)CCCc2cc(O)ccc21)Cc1ccc(F)cc1)CCCC(F)(F)C(F)(F)F` [Example 58, 9-{6-[(4-Fluorobenzyl){3-[(4,4,5,5,5-pentafluoropentyl)sulphonyl]propyl}amino]hexyl}-8-(4-fluorophenyl)-6,7-dihydro-5H-benzo[7]annulen-3-ol], for which the pIC50 is 6.74.

`O=S(=O)(CCCN(CCO)CCCCCCC1=C(c2ccc(F)cc2)CCCc2c1ccc(O)c2F)CCCC(F)(F)C(F)(F)F` [Example 59, 4-Fluoro-8-(4-fluorophenyl)-9-{6-[(2-hydroxyethyl){3-[(4,4,5,5,5-pentafluoropentyl)sulphonyl]propyl}amino]hexyl}-6,7-dihydro-5H-benzo[7]annulen-3-ol]: the pIC50 was 7.80. With `O=S(=O)(CCCN(CCCO)CCCCCCC1=C(c2ccc(F)cc2)CCCc2c1ccc(O)c2F)CCCC(F)(F)C(F)(F)F` [Example 60, 4-Fluoro-8-(4-fluorophenyl)-9-{6-[(3-hydroxypropyl){3-[(4,4,5,5,5-pentafluoropentyl)sulphonyl]propyl}amino]hexyl}-6,7-dihydro-5H-benzo[7]annulen-3-ol], the negative logarithm of the IC50 (pIC50) is 7.82. On to `O=S(=O)(CCCN(CCO)CCCCCCC1=C(c2ccc(F)cc2)CCCc2c1ccc(O)c2F)CCC(F)(F)F` [Example 61, 4-Fluoro-8-(4-fluorophenyl)-9-{6-[(2-hydroxyethyl){3-[(3,3,3-trifluoropropyl)sulphonyl]propyl}amino]hexyl}-6,7-dihydro-5H-benzo[7]annulen-3-ol], for which the pIC50 is 7.62.

Regarding `O=S(=O)(CCCN(CCCO)CCCCCCC1=C(c2ccc(F)cc2)CCCc2c1ccc(O)c2F)CCC(F)(F)F` [Example 62, 4-Fluoro-8-(4-fluorophenyl)-9-{6-[(3-hydroxypropyl){3-[(3,3,3-trifluoropropyl)sulphonyl]propyl}amino]hexyl}-6,7-dihydro-5H-benzo[7]annulen-3-ol], the pIC50 was 7.08. Regarding `CC(C)(C)N(CCCCCCC1=C(c2ccc(F)cc2)CCCc2c1ccc(O)c2F)CCCS(=O)(=O)CCCC(F)(F)C(F)(F)F` [Example 63, 9-[6-(tert-Butyl{3-[(4,4,5,5,5-pentafluoropentyl)sulphonyl]propyl}amino)hexyl]-4-fluoro-8-(4-fluorophenyl)-6,7-dihydro-5H-benzo[7]annulen-3-ol], the pIC50 is 7.02. Turning to `O=S(=O)(CCCN(CCCCCCC1=C(c2ccc(F)cc2)CCCc2c1ccc(O)c2F)CC(F)F)CCCC(F)(F)C(F)(F)F` [Example 64, 9-{6-[(2,2-Difluoroethyl){3-[(4,4,5,5,5-pentafluoropentyl)sulphonyl]propyl}amino]hexyl}-4-fluoro-8-(4-fluorophenyl)-6,7-dihydro-5H-benzo[7]annulen-3-ol], the pIC50 was 7.07. As for `O=S(=O)(CCCN(CCCCCCC1=C(c2ccc(F)cc2)CCCc2c1ccc(O)c2F)Cc1ccc(F)cc1)CCCC(F)(F)C(F)(F)F` [Example 65, 4-Fluoro-9-{6-[(4-fluorobenzyl){3-[(4,4,5,5,5-pentafluoropentyl)sulphonyl]propyl}amino]hexyl}-8-(4-fluorophenyl)-6,7-dihydro-5H-benzo[7]annulen-3-ol], the negative-log IC50 (pIC50) was 6.94. As to `O=S(=O)(CCCCNCCCCCCC1=C(c2cc(F)cc(F)c2)CCCc2cc(O)ccc21)CCCC(F)(F)F` [Example 67, 8-(3,5-Difluorophenyl)-9-[6-({4-[(4,4,4-trifluorobutyl)sulphonyl]butyl}amino)hexyl]-6,7-dihydro-5H-benzo[7]annulen-3-ol], the pIC50 is 7.70.

Take `CN(CCCCCCC1=C(c2cc(F)cc(F)c2)CCCc2cc(O)ccc21)CCCCCS(=O)(=O)CCC(F)(F)F` [Example 68, 8-(3,5-Difluorophenyl)-9-[6-(methyl{5-[(3,3,3-trifluoropropyl)sulphonyl]pentyl}amino)hexyl]-6,7-dihydro-5H-benzo[7]annulen-3-ol]: the pIC50 is 6.97. The figure for `CN(CCCCCCC1=C(c2cc(F)cc(F)c2)CCCc2cc(O)ccc21)CCCCS(=O)(=O)CCC(F)(F)C(F)(F)F` [Example 69, 8-(3,5-Difluorophenyl)-9-[6-(methyl{4-[(3,3,4,4,4-pentafluorobutyl)sulphonyl]butyl}amino)hexyl]-6,7-dihydro-5H-benzo[7]annulen-3-ol] is 7.72; for `CN(CCCCCCC1=C(c2cc(F)cc(F)c2)CCCc2cc(O)ccc21)CCCS(=O)(=O)CCCCC(F)(F)F` [Example 70, 8-(3,5-Difluorophenyl)-9-[6-(methyl{3-[(5,5,5-trifluoropentyl)sulphonyl]propyl}amino)hexyl]-6,7-dihydro-5H-benzo[7]annulen-3-ol] it is 7.74; for `CN(CCCCCCC1=C(c2ccc(F)c(F)c2)CCCc2cc(O)ccc21)CCCCCS(=O)(=O)CCC(F)(F)F` [Example 71, 8-(3,4-Difluorophenyl)-9-[6-(methyl{5-[(3,3,3-trifluoropropyl)sulphonyl]pentyl}amino)hexyl]-6,7-dihydro-5H-benzo[7]annulen-3-ol] it is 7.25. To `CN(CCCCCCC1=C(c2ccc(F)c(F)c2)CCCc2cc(O)ccc21)CCCS(=O)(=O)CCCCC(F)(F)F` [Example 73, 8-(3,4-Difluorophenyl)-9-[6-(methyl{3-[(5,5,5-trifluoropentyl)sulphonyl]propyl}amino)hexyl]-6,7-dihydro-5H-benzo[7]annulen-3-ol] belongs 7.74. With `O=S(=O)(CCCN(CCF)CCCCCCC1=C(c2ccc(F)cc2)CCCc2cc(O)ccc21)CCCC(F)(F)C(F)(F)F` [Example 74, 9-{6-[(2-Fluoroethyl){3-[(4,4,5,5,5-pentafluoropentyl)sulphonyl]propyl}amino]hexyl}-8-(4-fluorophenyl)-6,7-dihydro-5H-benzo[7]annulen-3-ol], the negative logarithm of the IC50 (pIC50) was 7.55. For `CN(CCCCCCC1=C(c2ccc(F)cc2)CCCc2cc(O)ccc21)CCCCS(=O)(=O)CCC(F)(F)C(F)(F)F` [Example 75, 8-(4-Fluorophenyl)-9-[6-(methyl{4-[(3,3,4,4,4-pentafluorobutyl)sulphonyl]butyl}amino)hexyl]-6,7-dihydro-5H-benzo[7]annulen-3-ol], the pIC50 was 7.96.

Broadly, the pIC50 is the negative decadic logarithm of the IC50, by convention in mol/L.
